The source of these data is US6703386B2, “Diphenylazetidinone derivatives, process for their preparation, medicaments comprising these compounds and their use” (Aventis Pharma Deutschland GmbH, priority 2000, dated 2004).

The test system of one data set is Caco-2 cell monolayers. The experiment in a line: Bioabsorption in the Caco cell model (Hilgers et al.). The class given is in vitro ADME. Particulars: estimated from Caco cell model. From the text:
The bioabsorption of the compounds of the formula I can be examined using the Caco cell model (A. R. Hilgers et al., Caco-2 cell monolayers as a model for drug transport across the intestinal mucosa, Pharm. Res. 1990, 7, 902).
Below is a bioabsorption measurement for a reference compound

The subject of data set [1] is cholesterol absorption (uptake of ^14C-cholesterol by the liver). The experiment in a line: Cholesterol absorption test: uptake of 14C-cholesterol by the liver after peroral test meal. The data set is classed as in vivo, NMRI mice. Conditions: dose at which uptake of 14C-cholesterol by the liver is halved vs control group, mouse. From the text:
Effect on Cholesterol Absorption+^3H-taurocholic Acid Excretion Using Fecal Excrement of Mice, Rats or Hamsters
NMRI mice, Wistar rats, or Golden Syrian hamsters (in groups of n=4-6) are kept in metabolic cages, where they are fed with a standard diet (Altromin, Lage (Lippe)). The afternoon prior to the administration of the radioactive tracers (^14C-cholesterol), the feed is removed and the animals are adapted to grates.
Additionally, the animals are labeled s.c. with ^3H-TCA (taurocholic acid) (for example 1 μCi/mouse up to 5 μCi/rat) 24 hours prior to the peroral administration of the test meal (^14C-cholesterol in Intralipid® 20, Pharmacia-Upjohn).
Cholesterol absorption test: 0.25 ml/mouse Intralipid® 20 (Pharmacia-Upjohn) ((spiked with 0.25 μCi of ^14C-cholesterol in 0.1 mg of cholesterol) is administered perorally by gavage.
Test substances are prepared separately in 0.5% methylcellulose (Sigma)/5% Solutol (BASF, Ludwigshafen) or a suitable vehicle.
The administration volume of the test substance is 0.5 ml/mouse. The test substance is administered immediately prior to the test meal (Intralipid labeled with ^14C-cholesterol) (cholesterol absorption test).
The feces are collected over a period of 24 h: fecal elimination of ^14C-cholesterol and ^3H-taurocholic acid (TCA) is determined after 24 hours.
The livers are removed and homogenized, and aliquots are incinerated in an oximate (Model 307, Packard) to determine the amount of ^14C-cholesterol which had been taken up/absorbed.
The amount of ^14C-cholesterol taken up by the liver is based on the administered dose. The ED50 values are interpolated from a dose-effect curve as the dose at which the uptake of ^14C-cholesterol by the liver is halved (50%), based on a control group.

With `O=C1[C@H](CC[C@H](O)c2ccc(F)cc2)[C@@H](c2ccc(O)cc2)N1c1ccc(F)cc1` [Ezetimibe], the Estimated human bioabsorption in the data set on Caco-2 cell monolayers is reported as 100%.

For the molecule `O=C(COCCOCC(=O)Nc1ccccc1C(Nc1ccccn1)C(c1ccccn1)C(O)c1ccccc1)NCc1ccc(C2C(CCC(O)c3ccc(F)cc3)C(=O)N2c2ccc(F)cc2)cc1.O=C(O)C(F)(F)F` (stereo not shown) [XIX, {1-[2-(2-{2-[(4-{1-(4-Fluorophenyl)-3-[3-(4-fluorophenyl)-3-hydroxypropyl]-4-oxoazetidin-2-yl}benzylcarbamoyl)methoxy]ethoxy}acetylamino)phenyl]-3-hydroxy-3-phenyl-2-pyridin-2-ylpropyl}pyridin-2-ylammonium trifluoroacetate], the “ED50 (liver)” value in data set [1] was 0.1 mg/mouse.

As for `O=C(CCCCCCCCCCC(=O)Nc1ccccc1C(Nc1ccccn1)C(c1ccccn1)C(O)c1ccccc1)NCc1cccc(C2C(CCC(O)c3ccc(F)cc3)C(=O)N2c2ccc(F)cc2)c1.O=C(O)C(F)(F)F` (stereo not shown) [XVI, (1-{2-[11-(3-{1-(4-Fluorophenyl)-3-[3-(4-fluorophenyl)-3-hydroxypropyl]-4-oxoazetidin-2-yl}benzylcarbamoyl)undecanoylamino]phenyl}-3-hydroxy-3-phenyl-2-pyridin-2-ylpropyl)pyridin-2-yl ammonium trifluoroacetate], the “ED50 (liver)” value in data set [1] stood at 0.03 mg/mouse.

As for `O=C(COCCOCCOCC(=O)Nc1ccccc1C(Nc1ccccn1)C(c1ccccn1)C(O)c1ccccc1)NCc1cccc(C2C(CCC(O)c3ccc(F)cc3)C(=O)N2c2ccc(F)cc2)c1.O=C(O)C(F)(F)F` (stereo not shown) [XVIII, (1-{2-[2-(2-{2-[(3-{1-(4-Fluorophenyl)-3-[3-(4-fluorophenyl)-3-hydroxypropyl]-4-oxoazetidin-2-yl}benzylcarbamoyl)methoxy]ethoxy}ethoxy)acetylamino]phenyl}-3-hydroxy-3-phenyl-2-pyridin-2-ylpropyl)pyridin-2-ylammonium trifluoroacetate], in data set [1], the “ED50 (liver)” value came to 0.3 mg/mouse.
